Data on five compounds can be found in patent US20100310553A1, “Compositions and Methods for Controlling Hepatitis C Virus Infection” (priority 2006, published 2010).

The term IC50 denotes the concentration that inhibits the measured activity by half.

Test [1] deals with HCV. The test is described as follows: HCV production after treatment of HCV-infected cells with commercial inhibitors of lipoprotein assembly and secretion, RPA. The test is classed as cell-based, Hepatitis C virus. As to conditions: increasing concentrations; positive-strand HCV RNA by RPA, 3 days p.i. As for the experimental part:
These inhibitors were used to treat HCV-infected cells. The culture supernatants were then used to infect naïve Huh7.5 cells. At 3 days p.i., the levels of positive-strand HCV RNA were determined by RPA.

Test [2] concerns HCV. In words: HCV infection of Huh7.5 cells in the presence of apoE3 or apoC-I protein. The test is classed as cell-based, Hepatitis C virus. The conditions noted are these: increasing concentrations (μg/ml); RPA. As for the experimental part: With reference to FIGS. 16A and 16B, the effect of recombinant apolipoprotein E3 (apoE3) and purified apoC-I on HCV infection was investigated. Huh7.5 cells were infected with HCV in the presence of increasing concentrations (μg/ml) of apoE3 or apoC-I, as indicated on the top of the figures. At 3-hr p.i., the HCV-infected cells were washed with 1×PBS twice and were incubated with medium for 3 days. With reference to FIG. 16A, the levels of HCV NS3 protein in the cells infected with HCV in the presence of apoE3 were then determined by Western blot analysis using an NS3-specific monoclonal antibody and a cellular beta-actin protein as an internal control. With reference to FIG. 16B, HCV positive-strand RNA in the cells infected with HCV in the presence of apoC-I were quantified by RPA.

Test [3] deals with apoB. The test is described as follows: apoB in media of HCV-infected Huh7.5 cells treated with inhibitor, Western blotting. The class given is cell-based. As to conditions: 1 μM; 4 days. The method, then: (§1) With reference to FIGS. 14A-14F, studies were carried out to determine the effects of an MTP inhibitor, CP-346086, on lipoprotein production/secretion and HCV production. […] To determine the effect of CP-346086 on HCV production, Huh7.5 cells were infected with HCV at 37° C. for 2 hr and then incubated with varying concentrations of CP-346086 for 4 days. The levels of apoB and apoE in the media were determined by Western blotting. […] The levels of HCV virions released into the media were initially determined by infectivity assay in cell culture. The naïve Huh7.5 cells were infected with HCV-containing media. At 3 days p.i., the levels of HCV NS3 protein and positive-stranded RNA were quantified by Western blotting and RPA, respectively. […] Similarly, CP-346086 lowered the infectious HCV titers by 1, 2, 3, and 4 orders of magnitude (10, 100, 1,000, and 10,000 times) at concentrations of 6.25, 12.5, 25, and 50 μM, respectively, as illustrated in FIG. 14E.
In general terms: In western blotting, separated proteins are transferred to a membrane and probed.

Test [4] relates to apoE. In words: apoE in media of HCV-infected Huh7.5 cells treated with inhibitor, Western blotting. The class given is cell-based. The conditions noted are these: 4 days. As for the experimental part: as §1
Test [5] deals with HCV. The test is described as follows: HCV production: infectivity of media of CP-346086-treated, HCV-infected Huh7.5 cells on naive Huh7.5 cells. The test is classed as cell-based, Hepatitis C virus. As for the experimental part:
as §1

In test [6] the test system is subgenomic HCV replicon of genotype 2a. The test is described as follows: HCV RNA replication in Huh7.5 cells harboring a subgenomic HCV replicon of genotype 2a. The test is classed as cell-based, Hepatitis C virus. As to conditions: subgenomic replicon genotype 2a, RPA. (In general: A replicon is a self-replicating genome or part of one, used to study replication in cells.)

Test [7] has as its system apoB and triglyceride secretion. As to conditions: HepG2 cells; cited from earlier work.

In the case of `O=c1c(O)c(-c2ccc(O)c(O)c2)oc2cc(O)cc(O)c12` [quercetin], in test [1], the “levels of HCV virion production” value is recorded as “significantly decreased”.

Take “ApoC-I: purified apoC-I protein (TPDVSSALDKLKEFGNTLEDKARELISRIKQSELSAKMREWFSETFQKVKEKLKIDS; UniProt P02654 27-83, looked up)”: in test [2], the “inhibition of HCV infection (HCV positive-strand RNA)” value is on record as “inhibited HCV infection in a dose-dependent manner”.

On to `COc1ccc(Cl)cc1C(=O)NCCc1ccc(S(=O)(=O)NC(=O)NC2CCCCC2)cc1` [glybenclamide], for which the “levels of HCV virion production” value in test [1] is “significantly decreased”.

In the case of `COc1ccc([C@@H]2CC(=O)c3c(O)cc(O)cc3O2)cc1O` [hesperetin], the “levels of HCV virion production” value in test [1] is on record as “significantly decreased”.

As to `O=C(Nc1ccc2c(c1)CCN(Cc1ncn[nH]1)C2)c1ccccc1-c1ccc(C(F)(F)F)cc1` [CP-346086], in test [3], the apoB secretion entry is recorded as “almost completely blocked”. Further, the “concentration up to which apoE secretion was not reduced” value in test [4] is “above 3 μM”. Further, the “lowering of infectious HCV titers” value in test [5] (6.25 μM) is recorded as 10 times; in test [5] (12.5 μM) it was 100 times; in test [5] (25 μM), 1,000 times; in test [5] (50 μM), 10,000 times. The “reduction of HCV positive-stranded RNA level” value in test [5] (50 μM, 3 days p.i., RPA) is on record as above 95%. The “reduction of HCV NS3 protein level” value in test [5] (50 μM, 3 days p.i., Western blotting) is above 95%. Besides, the “HCV RNA replication” value in test [6] is given as “no significant effect”. The concentration for half-maximal inhibition (IC50) in test [7] was 2.6 nM.
